# Test system: 454973-116-R2-J3-PDC spheroids, viability, % test/control
# Assay: Anticancer human tumor 454973-116-R2-J3-PDC patient-derived pancreatic carcinoma cell line growth inhibition [GQUAD]
# Settings: second compound 3.16 µM; first compound 0.1 µM; active compounds read low; spheroids with HUVEC and MSC
# Description: DNA G-quadruplex Stabilizer Agents in Combinations in Complex Spheroids
# A high-throughput screen of multi-cell type tumor spheroids was designed to identify active combinations of DNA G-quadruplex stabilizer agents and targeted small molecules. Complex spheroids include a stromal component modeled by human endothelial cells (HUVEC) and fibroblasts modeled by human mesenchymal stem cells (MSCs). The concentration ranges selected for each drug and investigational agent were based upon clinically achievable concentrations if the clinical Cmax of the agent was known.
# Compounds. The drugs and investigational agents: pidnarulex (CX-5461; NSC782164), APTO-253 (NSC789042), BRACO-19 (NSC847499), peposertib (NSC802822), ceralasertib (NSC780249), elimusertib (NSC800525), camonsertib (NSC841442), AZD-1390 (NSC803789), olaparib (NSC753686), talazoparib (NSC767125), ART-558 (NSC835418), sotorasib (NSC818433), MRTX-1133 (NSC836407), SN-38 (NSC673596), topotecan (NSC609699), etoposide (NSC141540), doxorubicin (NSC123127), gemcitabine (NSC613327), 5-fluorouracil (NSC19893), paclitaxel (NSC125973), vemurafenib (NSC761431), panobinostat (NSC761190), R-306465 (JNJ-16241199; NSC773264), adavosertib (NSC754352), TP-3654 (NSC805149), carboplatin (NSC241240), KSQ-4279 (NSC840948), and staurosporine (NSC755774) were obtained from the National Cancer Institute (NCI) Developmental Therapeutics Program Chemical Repository (34). The FDA-approved anticancer drug set is available from the NCI Developmental Therapeutics Program. […] The stock solutions were prepared in dimethyl sulfoxide (DMSO, Sigma-Aldrich, St. Louis, MO, cat. D2650) at 800-fold the tested concentration and stored at -70 degrees C prior to their use. All drugs and investigational agents were tested over a range starting from a high concentration at or near the clinical Cmax and decreasing in half-log increments. If the clinical Cmax for an agent had not been determined, the highest concentration tested was 10 microM.
# 2.3 Cell Culture. All cells were maintained in an incubator at 37 degrees C and 5% CO2 with 95% humidity. The PDC lines were cultured according to standard operating procedures established by the NCI PDMR. All PDCs were thawed and cultured in Matrigel-coated flasks prepared with a working solution of 1X Ham's F-12 nutrient mix, without supplementation (Invitrogen, cat. 11765054), 100 U/mL penicillin-streptomycin (Invitrogen, cat. 15140122), and 2.5% Matrigel (Corning Inc., cat. 354248) for the first three passages. The 857933-349-R-J2-PDC line was cultured in 6C/Colon 1B media, which includes advanced DMEM/F-12 (Thermo Fisher Scientific, cat. 12634028), 10 mM HEPES (Thermo Fisher Scientific, cat. 15630080), 1X GlutaMAX supplement (Thermo Fisher Scientific, cat. 35050061), 0.1 mg/mL primocin (InvivoGen, cat. ant-pm-2), 10% defined fetal bovine serum, heat inactivated (HyClone Laboratories Inc., cat. SH30070.03HI), 50% L-WRN conditioned media (ATCC, cat. CRL-3276), 1.25 mM N-Acetyl-L-cysteine (Sigma-Aldrich, cat. A9165), 10 mM nicotinamide (Sigma-Aldrich, cat. N0636), 1X B-27 supplement (Thermo Fisher Scientific, cat. 17504044), 1X N-2 supplement (Thermo Fisher Scientific, cat. 17502048), 10 microM Y-27632 dihydrochloride (Tocris Bioscience, cat. 1254), and 50 ng/mL human EGF recombinant protein (Thermo Fisher Scientific, cat. PHG0311). The 485176-168-R4-J1-PDC line was cultured in Panc media, which includes all 6C/Colon 1B media components plus 100 ng/mL human FGF-10 (Thermo Fisher Scientific, cat. 100-26), 500 nM SB-431542 (Selleckchem, cat. S1067), and gastrin (Tocris, cat. 3006).
# […]
# 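Also: spheroids exposed to compounds for seven days.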
row,Compound,"viability, T/C [%]"
1,Nc1ccn(C2OC(CO)C(O)C2(F)F)c(=O)n1 (stereo unspecified) + CN(C)c1ccc(Nc2c3ccc(NC(=O)CCN4CCCC4)cc3nc3cc(NC(=O)CCN4CCCC4)ccc23)cc1,14.7
2,O=c1[nH]cc(F)c(=O)[nH]1 + CN(C)c1ccc(Nc2c3ccc(NC(=O)CCN4CCCC4)cc3nc3cc(NC(=O)CCN4CCCC4)ccc23)cc1,71.5

# Same assay, conditions: second compound 3.16 µM; first compound 0.316 µM; active compounds read low; spheroids with HUVEC and MSC
row,Compound,"viability, T/C [%]"
1,C#Cc1c(F)ccc2cc(O)cc(-c3ncc4c(N5CC6CCC(C5)N6)nc(OCC56CCCN5CC(F)C6)nc4c3F)c12 (stereo unspecified) + CN(C)c1ccc(Nc2c3ccc(NC(=O)CCN4CCCC4)cc3nc3cc(NC(=O)CCN4CCCC4)ccc23)cc1,26.9
2,CC(C)n1c(=O)n(C)c2cnc3cc(F)c(-c4ccc(OCCCN5CCCCC5)nc4)cc3c21 + CN(C)c1ccc(Nc2c3ccc(NC(=O)CCN4CCCC4)cc3nc3cc(NC(=O)CCN4CCCC4)ccc23)cc1,95.9
3,Nc1ccn(C2OC(CO)C(O)C2(F)F)c(=O)n1 (stereo unspecified) + CN(C)c1ccc(Nc2c3ccc(NC(=O)CCN4CCCC4)cc3nc3cc(NC(=O)CCN4CCCC4)ccc23)cc1,17.4
4,O=c1[nH]cc(F)c(=O)[nH]1 + CN(C)c1ccc(Nc2c3ccc(NC(=O)CCN4CCCC4)cc3nc3cc(NC(=O)CCN4CCCC4)ccc23)cc1,95.7

# Same assay, conditions: second compound 3.16 µM; first compound 1 µM; active compounds read low; spheroids with HUVEC and MSC
row,Compound,"viability, T/C [%]"
1,C#Cc1c(F)ccc2cc(O)cc(-c3ncc4c(N5CC6CCC(C5)N6)nc(OCC56CCCN5CC(F)C6)nc4c3F)c12 (stereo unspecified) + CN(C)c1ccc(Nc2c3ccc(NC(=O)CCN4CCCC4)cc3nc3cc(NC(=O)CCN4CCCC4)ccc23)cc1,23
2,CC(C)n1c(=O)n(C)c2cnc3cc(F)c(-c4ccc(OCCCN5CCCCC5)nc4)cc3c21 + CN(C)c1ccc(Nc2c3ccc(NC(=O)CCN4CCCC4)cc3nc3cc(NC(=O)CCN4CCCC4)ccc23)cc1,65.8
3,Nc1ccn(C2OC(CO)C(O)C2(F)F)c(=O)n1 (stereo unspecified) + CN(C)c1ccc(Nc2c3ccc(NC(=O)CCN4CCCC4)cc3nc3cc(NC(=O)CCN4CCCC4)ccc23)cc1,13.3
4,O=c1[nH]cc(F)c(=O)[nH]1 + CN(C)c1ccc(Nc2c3ccc(NC(=O)CCN4CCCC4)cc3nc3cc(NC(=O)CCN4CCCC4)ccc23)cc1,59.9

# Same assay, conditions: second compound 3.16 µM; first compound 3.16 µM; active compounds read low; spheroids with HUVEC and MSC
row,Compound,"viability, T/C [%]"
1,C#Cc1c(F)ccc2cc(O)cc(-c3ncc4c(N5CC6CCC(C5)N6)nc(OCC56CCCN5CC(F)C6)nc4c3F)c12 (stereo unspecified) + CN(C)c1ccc(Nc2c3ccc(NC(=O)CCN4CCCC4)cc3nc3cc(NC(=O)CCN4CCCC4)ccc23)cc1,21.3
2,CC(C)n1c(=O)n(C)c2cnc3cc(F)c(-c4ccc(OCCCN5CCCCC5)nc4)cc3c21 + CN(C)c1ccc(Nc2c3ccc(NC(=O)CCN4CCCC4)cc3nc3cc(NC(=O)CCN4CCCC4)ccc23)cc1,72.5
3,Nc1ccn(C2OC(CO)C(O)C2(F)F)c(=O)n1 (stereo unspecified) + CN(C)c1ccc(Nc2c3ccc(NC(=O)CCN4CCCC4)cc3nc3cc(NC(=O)CCN4CCCC4)ccc23)cc1,14.6
4,O=c1[nH]cc(F)c(=O)[nH]1 + CN(C)c1ccc(Nc2c3ccc(NC(=O)CCN4CCCC4)cc3nc3cc(NC(=O)CCN4CCCC4)ccc23)cc1,32.2

# Same assay, conditions: second compound 3.16 µM; first compound 10 µM; active compounds read low; spheroids with HUVEC and MSC
row,Compound,"viability, T/C [%]"
1,C#Cc1c(F)ccc2cc(O)cc(-c3ncc4c(N5CC6CCC(C5)N6)nc(OCC56CCCN5CC(F)C6)nc4c3F)c12 (stereo unspecified) + CN(C)c1ccc(Nc2c3ccc(NC(=O)CCN4CCCC4)cc3nc3cc(NC(=O)CCN4CCCC4)ccc23)cc1,12.1
2,CC(C)n1c(=O)n(C)c2cnc3cc(F)c(-c4ccc(OCCCN5CCCCC5)nc4)cc3c21 + CN(C)c1ccc(Nc2c3ccc(NC(=O)CCN4CCCC4)cc3nc3cc(NC(=O)CCN4CCCC4)ccc23)cc1,63.7
3,Nc1ccn(C2OC(CO)C(O)C2(F)F)c(=O)n1 (stereo unspecified) + CN(C)c1ccc(Nc2c3ccc(NC(=O)CCN4CCCC4)cc3nc3cc(NC(=O)CCN4CCCC4)ccc23)cc1,14.7
4,O=c1[nH]cc(F)c(=O)[nH]1 + CN(C)c1ccc(Nc2c3ccc(NC(=O)CCN4CCCC4)cc3nc3cc(NC(=O)CCN4CCCC4)ccc23)cc1,37.6

# Same assay, conditions: second compound 10 µM; first compound 0.0316 µM; active compounds read low; spheroids with HUVEC and MSC
row,Compound,"viability, T/C [%]"
1,C#Cc1c(F)ccc2cc(O)cc(-c3ncc4c(N5CC6CCC(C5)N6)nc(OCC56CCCN5CC(F)C6)nc4c3F)c12 (stereo unspecified) + CN(C)c1ccc(Nc2c3ccc(NC(=O)CCN4CCCC4)cc3nc3cc(NC(=O)CCN4CCCC4)ccc23)cc1,44.9
2,CC(C)n1c(=O)n(C)c2cnc3cc(F)c(-c4ccc(OCCCN5CCCCC5)nc4)cc3c21 + CN(C)c1ccc(Nc2c3ccc(NC(=O)CCN4CCCC4)cc3nc3cc(NC(=O)CCN4CCCC4)ccc23)cc1,76.9
3,Nc1ccn(C2OC(CO)C(O)C2(F)F)c(=O)n1 (stereo unspecified) + CN(C)c1ccc(Nc2c3ccc(NC(=O)CCN4CCCC4)cc3nc3cc(NC(=O)CCN4CCCC4)ccc23)cc1,22.8

# Source: PubChem BioAssay AID2060508 (Molecular Pharmacology Branch, DTP, NCI, 2025)
